Data on 1 compound can be found in ChEMBL document CHEMBL1158315, “Sclerotiamide: a new member of the paraherquamide class with potent antiinsectan activity from the sclerotia of Aspergillus sclerotiorum” (1996).

For assay [1], the system named is Helicoverpa zea. Description: Insecticidal activity against corn ear worm first instar larvae assessed as reduction in growth at 200 ppm administered with standard test diet relative to control. It counts as functional. More on the design: scale not given: the % may be the effect or the level left.
Assay [2] has as its system Helicoverpa zea. The assay is described as follows: Insecticidal activity against corn ear worm first instar larvae assessed as mortality at 200 ppm administered with standard test diet. It counts as functional.
The test system of assay [3] is Helicoverpa zea. Description: Insecticidal activity against corn ear worm first instar larvae assessed as cuticle/exoskeleton rupture in dead larvae at 200 ppm administered with standard test diet. The class given is functional, organism-based.
In assay [4] the test system is Helicoverpa zea. Description: Insecticidal activity against corn ear worm first instar larvae assessed as laterally shriveled in dead larvae at 200 ppm administered with standard test diet. It counts as functional, organism-based.
The subject of assay [5] is Helicoverpa zea. Description: Insecticidal activity against corn ear worm first instar larvae assessed as blackened in dead larvae at 200 ppm administered with standard test diet. The class given is functional, organism-based.
In assay [6] the test system is Helicoverpa zea. The assay is described as follows: Insecticidal activity against corn ear worm first instar larvae assessed as bloating of area just prior to rear body in surviving larvae at 200 ppm administered with standard test diet. The class given is functional, organism-based.
The subject of the next assay is Carpophilus. The assay is described as follows: Antifeedant activity against Carpophilus hemipterus adult assessed as reduction in feeding rate at 100 ppm. The class given is functional.
Assay [7] can be described thus: Cytotoxicity against human NCI60 cells. The class given is functional.

Active and inactive are the calls of the source. The rule behind the calls is not given here. Where only a bound is given, the exact number is not on record here.

`CC1(C)C=Cc2c(ccc3c2NC(=O)[C@@]32[C@H](O)[C@@]34NC(=O)[C@]5(CCCN5C3=O)C[C@H]4C2(C)C)O1` [SCLEROTIAMIDE]: the Activity in the assay on Helicoverpa zea [1] amounted to 98%; in the assay with Helicoverpa zea [2], 46%; in assay [7] it was 44%. In addition, the result in the assay on Helicoverpa zea [3], in the assay with Helicoverpa zea [4], in the assay with Helicoverpa zea [5] and in the assay on Helicoverpa zea [6] was Active. Further, in the assay on Carpophilus, the concentration for 50% growth inhibition (GI50) is > 25 µg/mL.
